Data published in US20250179078A1, “INHIBITORS OF NLRP3” (PTC THERAPEUTICS, INC., priority 2022, published 2025).

Each molecule was assayed against T1, NLRP3 (Homo sapiens, UniProt Q96P20) (assay: IL-1β Secretion Assay (NLRP3-dependent IL1β secretion in THP1 cells)). Conditions: PMA-differentiated THP-1 cells; compounds incubated 20 h; 2.5 μM Nigericin 3 h; HTRF IL-1β readout; read-out: IC50 IL-1β Inhibition.
T1 construct: host or cells: THP-1 cells differentiated with PMA
Format: cell-based
In short: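 IL-1β in conditioned media, measured by HTRF after 3 h 2.5 μM nigericin stimulation, gave % inhibition fitted logistically for IC50. Before that, PMA-differentiated (100 ng/mL, 24 h) THP-1 cells were preincubated 20 h with 7 compound concentrations (3-fold serial, DMSO 1:200).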

T1 sequence (Q96P20 whole entry): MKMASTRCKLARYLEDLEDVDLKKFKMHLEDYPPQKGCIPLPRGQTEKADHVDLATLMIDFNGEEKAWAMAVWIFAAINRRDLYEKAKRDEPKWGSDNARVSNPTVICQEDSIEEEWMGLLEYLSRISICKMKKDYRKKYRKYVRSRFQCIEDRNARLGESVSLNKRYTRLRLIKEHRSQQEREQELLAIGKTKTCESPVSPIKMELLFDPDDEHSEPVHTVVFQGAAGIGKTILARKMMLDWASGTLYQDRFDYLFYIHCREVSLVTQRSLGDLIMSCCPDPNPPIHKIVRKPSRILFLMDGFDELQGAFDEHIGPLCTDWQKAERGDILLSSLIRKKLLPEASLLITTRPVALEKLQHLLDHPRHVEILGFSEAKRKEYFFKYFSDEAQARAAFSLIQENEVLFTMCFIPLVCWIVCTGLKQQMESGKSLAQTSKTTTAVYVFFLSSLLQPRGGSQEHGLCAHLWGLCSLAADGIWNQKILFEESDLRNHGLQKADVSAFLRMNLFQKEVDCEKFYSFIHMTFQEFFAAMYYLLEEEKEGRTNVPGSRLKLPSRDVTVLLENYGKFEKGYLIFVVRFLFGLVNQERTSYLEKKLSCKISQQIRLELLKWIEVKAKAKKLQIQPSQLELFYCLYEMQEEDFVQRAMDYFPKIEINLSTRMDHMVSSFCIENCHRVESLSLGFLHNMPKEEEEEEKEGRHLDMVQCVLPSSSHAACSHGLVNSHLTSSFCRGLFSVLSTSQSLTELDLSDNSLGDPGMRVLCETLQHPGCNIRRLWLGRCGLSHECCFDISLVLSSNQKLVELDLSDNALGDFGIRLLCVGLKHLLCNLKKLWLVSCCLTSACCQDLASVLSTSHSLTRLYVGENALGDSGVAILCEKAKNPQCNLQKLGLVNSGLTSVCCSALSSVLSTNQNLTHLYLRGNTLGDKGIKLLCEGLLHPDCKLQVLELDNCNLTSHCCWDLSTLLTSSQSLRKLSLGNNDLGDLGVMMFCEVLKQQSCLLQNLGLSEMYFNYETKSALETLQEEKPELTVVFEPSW

SMILES | IC50 [nM]
COc1ccc(-c2nnc(N[C@H]3C[C@@](C)(O)C3)n3cccc23)c(C(F)(F)F)c1 [Compound 71, (1s,3s)-3-({1-[4-methoxy-2-(trifluoromethyl)phenyl]pyrrolo[1,2-d][1,2,4]triazin-4-yl}amino)-1-methylcyclobutan-1-ol] | 1 to 10
COc1ccc(-c2nnc(N[C@H]3C[C@@](C)(O)C3)n3cccc23)c(Cl)c1 [Compound 72, (1s,3s)-3-{[1-(2-chloro-4-methoxyphenyl)pyrrolo[1,2-d][1,2,4]triazin-4-yl]amino}-1-methylcyclobutan-1-ol] | 10 to 100
COc1ccc(-c2nnc(NC[C@H]3CCCO3)n3cccc23)c(OC(F)(F)F)c1 [Compound 73, 1-[4-methoxy-2-(trifluoromethoxy)phenyl]-N-{[(2R)-oxolan-2-yl]methyl}pyrrolo[1,2-d][1,2,4]triazin-4-amine] | 10 to 100
COc1ccc(-c2nnc(NC[C@@H]3CCCN3C)n3cccc23)c(OC(F)(F)F)c1 [Compound 74, 1-[4-methoxy-2-(trifluoromethoxy)phenyl]-N-{[(2S)-1-methylpyrrolidin-2-yl]methyl}pyrrolo[1,2-d][1,2,4]triazin-4-amine] | 10 to 100
COc1cc(F)c(-c2nnc(N[C@@H]3CCCN(C)C3)n3cccc23)c(C2CC2)c1 [Compound 75, 1-(2-cyclopropyl-6-fluoro-4-methoxyphenyl)-N-[(3R)-1-methylpiperidin-3-yl]pyrrolo[1,2-d][1,2,4]triazin-4-amine] | 1 to 10
COc1ccc(-c2nnc(NC[C@@H]3CCCO3)n3cccc23)c(OC(F)(F)F)c1 [Compound 76, 1-[4-methoxy-2-(trifluoromethoxy)phenyl]-N-{[(2S)-oxolan-2-yl]methyl}pyrrolo[1,2-d][1,2,4]triazin-4-amine] | 10 to 100
O=C1NCCC1Nc1nnc(-c2ccc(C(F)(F)F)cc2CC(F)(F)F)c2cccn12 (stereo not drawn) [Compound 77, 3-({1-[2-(2,2,2-trifluoroethyl)-4-(trifluoromethyl)phenyl]pyrrolo[1,2-d][1,2,4]triazin-4-yl}amino)pyrrolidin-2-one] | 1 to 10
O[C@H]1CCCC[C@@H]1Nc1nnc(-c2ccc(C(F)(F)F)cc2OC(F)F)c2cccn12 [Compound 78, (1S,2S)-2-({1-[2-(difluoromethoxy)-4-(trifluoromethyl)phenyl]pyrrolo[1,2-d][1,2,4]triazin-4-yl}amino)cyclohexan-1-ol] | 10 to 100
O[C@@H]1CCCC[C@@H]1Nc1nnc(-c2ccc(C(F)(F)F)cc2OC(F)F)c2cccn12 [Compound 79, (1R,2S)-2-({1-[2-(difluoromethoxy)-4-(trifluoromethyl)phenyl]pyrrolo[1,2-d][1,2,4]triazin-4-yl}amino)cyclohexan-1-ol] | 10 to 100
Cc1ccc(-c2nnc(N[C@H]3CCCC[C@@H]3O)n3cccc23)c(OC(F)F)c1 [Compound 80, (1S,2S)-2-({1-[2-(difluoromethoxy)-4-methylphenyl]pyrrolo[1,2-d][1,2,4]triazin-4-yl}amino)cyclohexan-1-ol] | 10 to 100
COc1ccc(-c2nnc(N[C@H]3CCCC[C@@H]3O)n3cccc23)c(OC(F)(F)F)c1 [Compound 81, (1S,2S)-2-({1-[4-methoxy-2-(trifluoromethoxy)phenyl]pyrrolo[1,2-d][1,2,4]triazin-4-yl}amino)cyclohexan-1-ol] | 10 to 100
CCN1CCC[C@@H](Nc2nnc(-c3ccc(OC)cc3Cl)c3c(F)ccn23)C1 [Compound 82, 1-(2-chloro-4-methoxyphenyl)-N-[(3R)-1-ethylpiperidin-3-yl]-8-fluoropyrrolo[1,2-d][1,2,4]triazin-4-amine] | 1 to 10
COc1ccc(-c2nnc(N[C@@H]3CCCN(CCO)C3)n3ccc(F)c23)c(Cl)c1 [Compound 83, 2-[(3R)-3-{[1-(2-chloro-4-methoxyphenyl)-8-fluoropyrrolo[1,2-d][1,2,4]triazin-4-yl]amino}piperidin-1-yl]ethan-1-ol] | 1 to 10
COc1ccc(-c2nnc(N[C@H]3C[C@@](C)(O)C3)n3ccc(F)c23)c(Cl)c1 [Compound 84, (1s,3s)-3-{[1-(2-chloro-4-methoxyphenyl)-8-fluoropyrrolo[1,2-d][1,2,4]triazin-4-yl]amino}-1-methylcyclobutan-1-ol] | 10 to 100
CCN1CCC[C@@H](Nc2nnc(-c3ccc(OC(F)F)cc3OC(F)(F)F)c3cccn23)C1 [Compound 85, 1-[4-(difluoromethoxy)-2-(trifluoromethoxy)phenyl]-N-[(3R)-1-ethylpiperidin-3-yl]pyrrolo[1,2-d][1,2,4]triazin-4-amine] | < 1
OCCN1CCC[C@@H](Nc2nnc(-c3ccc(OC(F)F)cc3OC(F)(F)F)c3cccn23)C1 [Compound 86, 2-[(3R)-3-({1-[4-(difluoromethoxy)-2-(trifluoromethoxy)phenyl]pyrrolo[1,2-d][1,2,4]triazin-4-yl}amino)piperidin-1-yl]ethan-1-ol] | < 1
CN1C[C@H](F)C[C@@H](Nc2nnc(-c3ccc(OC(F)F)cc3OC(F)(F)F)c3cccn23)C1 [Compound 87, 1-[4-(difluoromethoxy)-2-(trifluoromethoxy)phenyl]-N-[(3R,5R)-5-fluoro-1-methylpiperidin-3-yl]pyrrolo[1,2-d][1,2,4]triazin-4-amine] | 1 to 10

SMILES | IC50 [nM]
C[C@]1(O)C[C@@H](Nc2nnc(-c3ccc(OC(F)F)cc3OC(F)(F)F)c3cccn23)C1 [Compound 88, (1s,3s)-3-({1-[4-(difluoromethoxy)-2-(trifluoromethoxy)phenyl]pyrrolo[1,2-d][1,2,4]triazin-4-yl}amino)-1-methylcyclobutan-1-ol] | 1 to 10
CC(Nc1nnc(-c2ccc(C(F)(F)F)cc2OC(F)F)c2cccn12)c1cccc(O)c1 (stereo not drawn) [Compound 89, 3-[1-({1-[2-(difluoromethoxy)-4-(trifluoromethyl)phenyl]pyrrolo[1,2-d][1,2,4]triazin-4-yl}amino)ethyl]phenol] | 1 to 10
O[C@@H]1CCCC[C@H]1Nc1nnc(-c2ccc(C(F)(F)F)cc2CC(F)(F)F)c2cccn12 [Compound 90, (1R,2R)-2-({1-[2-(2,2,2-trifluoroethyl)-4-(trifluoromethyl)phenyl]pyrrolo[1,2-d][1,2,4]triazin-4-yl}amino)cyclohexan-1-ol] | < 1
COc1ccc(-c2nnc(NCc3ncco3)n3cccc23)c(OC(F)(F)F)c1 [Compound 91, 1-[4-methoxy-2-(trifluoromethoxy)phenyl]-N-[(1,3-oxazol-2-yl)methyl]pyrrolo[1,2-d][1,2,4]triazin-4-amine] | 10 to 100
COc1ccc(-c2nnc(NCc3nncn3C)n3cccc23)c(OC(F)(F)F)c1 [Compound 92, 1-[4-methoxy-2-(trifluoromethoxy)phenyl]-N-[(4-methyl-4H-1,2,4-triazol-3-yl)methyl]pyrrolo[1,2-d][1,2,4]triazin-4-amine] | 100 to 300
COc1ccc(-c2nnc(NCc3ncnn3C)n3cccc23)c(OC(F)(F)F)c1 [Compound 93, 1-[4-methoxy-2-(trifluoromethoxy)phenyl]-N-[(1-methyl-1H-1,2,4-triazol-5-yl)methyl]pyrrolo[1,2-d][1,2,4]triazin-4-amine] | 10 to 100
COc1ccc(-c2nnc(NC34CC(CO)(C3)C4)n3cccc23)c(OC(F)(F)F)c1 [Compound 94, [3-({1-[4-methoxy-2-(trifluoromethoxy)phenyl]pyrrolo[1,2-d][1,2,4]triazin-4-yl}amino)bicyclo[1.1.1]pentan-1-yl]methanol] | 10 to 100
CCC(=O)c1ccc(-c2nnc(N[C@@H]3CCCN(C)C3)n3cccc23)c(OC(F)F)c1 [Compound 95, 1-[3-(difluoromethoxy)-4-(4-{[(3R)-1-methylpiperidin-3-yl]amino}pyrrolo[1,2-d][1,2,4]triazin-1-yl)phenyl]propan-1-one] | 1 to 10
CC(Nc1nnc(-c2ccc(C(F)(F)F)cc2CC(F)(F)F)c2cccn12)c1cccc(O)c1 (stereo not drawn) [Compound 96, 3-[1-({1-[2-(2,2,2-trifluoroethyl)-4-(trifluoromethyl)phenyl]pyrrolo[1,2-d][1,2,4]triazin-4-yl}amino)ethyl]phenol] | 1 to 10
FC(F)(F)Cc1cc(C(F)(F)F)ccc1-c1nnc(Nc2cc[nH]n2)n2cccc12 [Compound 97, N-(1H-pyrazol-3-yl)-1-[2-(2,2,2-trifluoroethyl)-4-(trifluoromethyl)phenyl]pyrrolo[1,2-d][1,2,4]triazin-4-amine] | 10 to 100
CN1C[C@@H](O)C[C@@H](Nc2nnc(-c3ccc(C(F)(F)F)cc3OC(F)F)c3cccn23)C1 [Compound 98, (3S,5R)-5-({1-[2-(difluoromethoxy)-4-(trifluoromethyl)phenyl]pyrrolo[1,2-d][1,2,4]triazin-4-yl}amino)-1-methylpiperidin-3-ol] | 1 to 10
O[C@H]1CCCC[C@@H]1Nc1nnc(-c2ccc(C(F)(F)F)cc2C(F)(F)F)c2cccn12 [Compound 99, (1S,2S)-2-({1-[2,4-bis(trifluoromethyl)phenyl]pyrrolo[1,2-d][1,2,4]triazin-4-yl}amino)cyclohexan-1-ol] | 100 to 300
Cc1ccc(-c2nnc(NC(C)c3cccc(O)c3)n3cccc23)c(OC(F)F)c1 (stereo not drawn) [Compound 100, 3-[1-({1-[2-(difluoromethoxy)-4-methylphenyl]pyrrolo[1,2-d][1,2,4]triazin-4-yl}amino)ethyl]phenol] | 1 to 10
Oc1cccc(CNc2nnc(-c3ccc(C(F)(F)F)cc3OC(F)F)c3cccn23)c1 [Compound 101, 3-[{{1-[2-(difluoromethoxy)-4-(trifluoromethyl)phenyl]pyrrolo[1,2-d][1,2,4]triazin-4-yl}amino)methyl]phenol] | 1 to 10
COc1ccc(-c2nnc(N[C@H]3C[C@@](C)(O)C3)n3cccc23)c(C2CC2)c1 [Compound 104, (1s,3s)-3-{[1-(2-cyclopropyl-4-methoxyphenyl)pyrrolo[1,2-d][1,2,4]triazin-4-yl]amino}-1-methylcyclobutan-1-ol] | 10 to 100
COc1ccc(-c2nnc(Nc3cc[nH]n3)n3cccc23)c(C2CC2)c1 [Compound 105, 1-(2-cyclopropyl-4-methoxyphenyl)-N-(1H-pyrazol-3-yl)pyrrolo[1,2-d][1,2,4]triazin-4-amine] | 100 to 300
